From PubChem BioAssay (NCI)
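Compound exposure: 48 hours, 5 concentrations, 96-well plates. GI50 marks 50% less growth. The concentration for full growth arrest is given as TGI.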

Key:
Experiment in all cases: NCI anticancer screen, dose series, 48 h
[1] = tested on: NCI-H460 lung
[2] = tested on: TK-10 renal
[3] = tested on: UACC-62 melanoma
[4] = tested on: A498 renal
[5] = tested on: SR leukemia
[6] = tested on: RPMI-8226 leukemia
[7] = tested on: HCT-116 colon
[8] = tested on: M14 melanoma
[9] = tested on: MDA-MB-435
[10] = tested on: MDA-MB-231 breast

SMILES	TGI [1] [µM]	TGI [2] [µM]	TGI [3] [µM]	TGI [4] [µM]	TGI [5] [µM]	TGI [6] [µM]	TGI [7] [µM]	TGI [8] [µM]	GI50 [6] [µM]	GI50 [9] [µM]	TGI [9] [µM]	GI50 [1] [µM]	GI50 [2] [µM]	GI50 [3] [µM]	GI50 [7] [µM]	GI50 [8] [µM]	GI50 [10] [µM]	TGI [10] [µM]	GI50 [4] [µM]	GI50 [5] [µM]
N#Cc1ccccc1C(Cl)(Cl)c1cnccn1	> 100	> 100	> 100	> 100	> 100															
COC/C=C\COC	> 100	> 100	> 100			> 100	> 100	> 100												
COc1cc2c(c(OC)c1OC)-c1ncc3c(OC)c(OC)c(OC)cc3c1C2	> 100	63.5	49.3			54.9	> 100	> 100	19	23	73.5	32.6	22.5	21.1	27.8	39.8	26.2	86.8		
CC[n+]1oc(C(=O)c2ccc(Cl)cc2)c(-c2ccccc2)c1-c1ccccc1.[Cl][Fe]([Cl])([Cl])[Cl]	> 100	> 100	> 100	75.1	> 100	54.2		> 100	19.6	22.3	80.5	43.2	33.4	63.8		52.5	36.5	> 100	22.2	33
C=C1C(=O)OC2C/C(C)=C/CC/C(C)=C/CCC3(COC(C)=O)OC3CC12 (stereo not drawn)	25.2	19.5	27.4	27		13	3.87	18.5												
Cc1ccc(NC(=O)CCc2nc(N)nc(N)c2-c2ccccc2)cc1C	> 100	> 100	> 100	> 100	> 100	> 100	> 100	> 100												
COc1ccc(N=NC(C(=O)c2ccccc2)C(=O)c2ccccc2)cc1	68.4	> 100	56.1	> 100		53.7	38.8	33.4												
CCOC(=O)C(Cc1c[nH]c2c(N(CCO)CCO)cccc12)(NC(C)=O)C(=O)OCC	> 1000	> 1000	> 1000		890		> 1000	> 1000		167	311	642	> 1000	263	412	> 1000	692	> 1000		144
C#Cc1cccc(N2C(=O)c3c(c(-c4ccccc4)c(-c4ccc(Cc5ccc(-c6c(-c7ccccc7)c7c(c(-c8ccccc8)c6-c6ccccc6)C(=O)N(c6cccc(C#C)c6)C7=O)cc5)cc4)c(-c4ccccc4)c3-c3ccccc3)C2=O)c1	> 100	53.3	> 100			> 100	> 100	41.5												
O=c1/c(=C/c2ccccc2[N+](=O)[O-])sc2nc3ccccc3n12	> 46.4	> 46.4	> 100	> 41.6	25	20.1	> 46.4	> 46.4												
COc1cccc(/C(C#N)=C/c2nc3c(N4CCOCC4)nc(Cl)nc3n2C)c1	3.65		2.47	2.91	2.44	1.87	0.433	2.38	0.376	1.25	2.61	1.71		1.2	0.171	1.06	1.38	2.82	1.49	0.355
COc1ccc(NC(=O)CC2SC(=Nc3ccccc3C)NC2=O)c([N+](=O)[O-])c1 (stereo not drawn)	> 100	> 100	> 100		> 100	> 100	> 100	> 100												
COc1ccc(OC)c(NC(=O)CCC/C(CC(=O)c2ccc(O)c(OC)c2)=N\Nc2nnc(C)n2N)c1	> 100	> 100	> 100	> 100	> 100	> 100		> 100												
C/C=C(/I)CBr	37.4		29.5			39.2	27.9	28.7												
COc1ccc(NC(=O)/C(=C/c2ccccc2)C(C)=O)cc1	62.5	37.4	22.3	36.7		24.8		27.1												
S=c1snc2n1CCN2	> 100	> 100	> 100	> 100		> 100	> 100	> 100	42.2	> 100	> 100	54.9	> 100	95.5	22.6	> 100	91.1	> 100	65	
COc1ccc(NC(=O)CSC2=C(Nc3cccc(Br)c3)C(=O)N(Cc3ccccc3)C2=O)cc1Cl	> 100	> 100	> 100		24.3	> 100	> 100	> 100	4.14	> 100	> 100	29.9	44.4	46.2	32.8	> 100	> 100	> 100		3.02
CCOC(=O)Nc1nc2ccc(OC)cc2s1	> 100	> 100	> 100		> 100	> 100	> 100	> 100	> 100	4.18	> 100	> 100	> 100	> 100	> 100	> 100	> 100	> 100		8.14
CCNC(=O)COc1ccc(Br)cc1Br	> 100		> 100	> 100	> 100	> 100	> 100	> 100												
CC(Oc1ccc2c(-c3ccccc3)cc(=O)oc2c1)C(=O)O (stereo not drawn)	> 100	> 100	> 100	> 100	> 100		> 100	> 100												
